Results published in publication PMC5875417 (ACS chemical neuroscience, 2015).
Values joined by “and” are separate entries in the source; they are usually repeats but may differ in a detail not shown here. Equal values may be shown once. Read-outs that look alike come from different tables or passages of the source.

Target: human dopamine transporter (hDAT) (Homo sapiens, UniProt Q01959)
Test: cell-based
Type: cell-based
Details: for Relative persistent current (Ip relative to Io) after washout: as a function of concentration, Ip current remaining after washout before block with cocaine; for Depolarizing current: data not shown
[1] = Hill fit of dose-response normalized to 10 μM DA, −60 mV
[2] = ability to generate a persistent current at 10 μM and −60 mV

Chain of human dopamine transporter (hDAT) (Q01959 whole entry): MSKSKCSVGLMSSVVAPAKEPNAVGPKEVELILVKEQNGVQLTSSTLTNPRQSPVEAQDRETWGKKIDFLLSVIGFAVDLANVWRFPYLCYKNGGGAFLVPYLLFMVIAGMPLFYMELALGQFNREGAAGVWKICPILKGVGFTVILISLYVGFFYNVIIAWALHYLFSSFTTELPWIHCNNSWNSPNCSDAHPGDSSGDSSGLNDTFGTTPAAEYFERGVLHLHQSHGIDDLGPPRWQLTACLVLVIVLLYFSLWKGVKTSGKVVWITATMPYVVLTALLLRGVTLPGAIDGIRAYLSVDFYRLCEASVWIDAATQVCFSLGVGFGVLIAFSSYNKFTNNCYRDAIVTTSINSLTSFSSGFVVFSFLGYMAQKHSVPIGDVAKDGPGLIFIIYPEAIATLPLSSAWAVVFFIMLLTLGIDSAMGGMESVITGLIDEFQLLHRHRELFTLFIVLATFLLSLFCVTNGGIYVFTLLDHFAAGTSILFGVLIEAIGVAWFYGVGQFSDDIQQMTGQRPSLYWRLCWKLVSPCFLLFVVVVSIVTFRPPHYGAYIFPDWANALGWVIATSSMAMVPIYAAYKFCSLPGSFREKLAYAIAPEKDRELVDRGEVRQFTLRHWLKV

## Cl.NCCc1ccc(O)cc1 [3-des-OH DA (3), 2-(4-Hydroxyphenyl)-1-aminoethane hydrochloride]
  Hill coefficients: 0.91 ±0.08
  Persistent Current: no pronounced persistent current and No
EC50
  EC50: 1450 nM and 1430 nM

## NCCc1cccc(O)c1 [4-des-OH DA (4), 2-(3-Hydroxyphenyl)-1-aminoethane]
[1]
  Hill coefficients: 1.07 ±0.09
[2]
  Persistent Current: No
Ability to generate a persistent current at 10 μM and −60 mV, listed as 4-des-OH DA
  Persistent Current: no pronounced persistent current

## COC(=O)[C@H]1[C@@H](OC(=O)c2ccccc2)C[C@@H]2CC[C@H]1N2C [Cocaine, reference compound]
  Block of induced currents through hDAT: blocks the DA- and R(−)AMPH-induced initial currents

## NCCc1ccc(O)c(O)c1 [DA (2), dopamine, reference compound]
  Hill coefficients: 1.32 ±0.07
  Persistent Current: No
  Rank order of efficacy: S(+)AMPH > DA > R(−)AMPH

## C[C@@H](N)Cc1ccc(O)cc1.Cl [R(−) α-Me 3-des-OH DA (R6), R(–)-1-(4-Hydroxyphenyl)-2-aminopropane hydrochloride]
[1]
  Hill coefficients: 0.98 ± 0.08
[2]
  Persistent Current: No
−60 mV
  Relative persistent current (Ip relative to Io) after washout: much lower persistent current than S(+)AMPH (S1)

## Br.C[C@@H](N)Cc1ccc(O)c(O)c1 [R(−) α-Me DA (R7), R(−)-1-(3,4-Dihydroxyphenyl)-2-aminopropane hydrobromide]
[1]
  Hill coefficients: 0.55 ± 0.06
[2]
  Persistent Current: No

## COC(=O)[C@H]1C(c2ccc(I)cc2)C[C@@H]2CC[C@H]1N2C (stereo partly shown) [RTI-55, reference compound]
10 μM RTI-55, −60 mV
  Block of S(+)AMPH-induced initial peak current and persistent current: blocked

## C[C@H](N)Cc1ccc(O)cc1.Cl [S(+) α-Me 3-des-OH DA (S6), S(+)-1-(4-Hydroxyphenyl)-2-aminopropane hydrochloride]
10 μM, −60 mV, normalized to 10 μM DA in same cell
  Recovery time constant T50 upon removal of compound, compared to DA: no significant differences
[1]
  Hill coefficients: 0.49 ± 0.05
[2]
  Persistent Current: No
−60 mV
  Relative persistent current (Ip relative to Io) after washout: much lower persistent current than S(+)AMPH (S1)

## Br.C[C@H](N)Cc1ccc(O)c(O)c1 [S(+) α-Me DA (S7), S(+)-1-(3,4-Dihydroxyphenyl)-2-aminopropane hydrobromide]
[1]
  Hill coefficients: 0.71 ± 0.11
[2]
  Persistent Current: No

## COc1ccc(CCN)cc1 [compound 8, 2-(4-Methoxyphenyl)-1-aminoethane]
10 μM
  Depolarizing current: comparatively small depolarizing currents

## COc1cccc(CCN)c1 [compound 9, 2-(3-methoxyphenyl)-1-aminoethane]
10 μM
  Depolarizing current: comparatively small depolarizing currents

## NCCc1ccccc1 [β-PEA (5), 2-phenyl-1-aminoethane, reference compound]
100 μM, −60 mV
  Persistent Current: pronounced persistent current
[1]
  Hill coefficients: 1.06 ± 0.16
[2]
  Persistent Current: Yes
−60 mV
  Relative persistent current (Ip relative to Io) after washout: much lower persistent current than S(+)AMPH (S1)
